Experiments:
[1] = test system: baboons fed the HCHF diet; assay type: in vivo, baboon
[2] = test system: baboons; assay: IgG levels, body weights and food consumption in baboons; conditions: during the study (data not shown)
[3] = test system: cynomolgus monkeys fed the HCHF diet; assay type: in vivo, cynomolgus monkey; conditions: single iv injection 20 mg/kg, at day 7, n=2, P<.05
[4] = test system: CETP; conditions: ref [10]; cited from earlier work
[5] = test system: baboons; conditions: in vivo

Substance: truncated apoC-I peptide: 38 amino acid N-terminal fragment of apoC-I peptide based on human sequences, made by solid-phase synthesis; CETP inhibitor (TPDVSSALDKLKEFGNTLEDKARELISRIKQSELSAKM; UniProt P02654 27-64, looked up, fragment)
- day by which VLDL + LDL cholesterol reached baseline values ([1]; intravenous, 10, 15, 20 mg/kg on days 0, 7, 14, n=3): ≤ 25 days
- maximum increase in HDL cholesterol concentration ([1]; intravenous, 10, 15, 20 mg/kg on days 0, 7, 14, n=3, P<.05): 20%
- change in plasma triglycerides ([1]; intravenous, 10, 15, 20 mg/kg on days 0, 7, 14, until day 19, except at day 4, n=3): decreased
- day on which VLDL + LDL cholesterol returned to baseline values ([1]; subcutaneous, 10, 15, 20 mg/kg on days 0, 7, 14, n=3): 28 days
- maximum decrease in VLDL + LDL cholesterol ([1]; subcutaneous, 10, 15, 20 mg/kg on days 0, 7, 14, on day 19, n=3): 20%
- maximum increase in HDL cholesterol ([1]; subcutaneous, 10, 15, 20 mg/kg on days 0, 7, 14, on day 23, n=3): 20%
- body weights [2]: no change
- food consumption [2]: no change
- maximum decrease in plasma LDL cholesterol levels [3]: 26.5 ± 4.5%
- CETP activity in the plasma of low-HDL baboons [4]: inhibited CETP activity
- plasma IgG levels, change in response to peptide infusion [5]: did not change significantly
